Source: patent US20160257697A1, “THIOPHENE-SUBSTITUTED TETRACYCLIC COMPOUNDS AND METHODS OFUSE THEREOF FOR THE TREATMENT OF VIRAL DISEASES” (priority 2013, published 2016)
Read-outs that look alike come from different tables or passages of the source.

Columns and labels:
Experiment in all cases: microbe, parasite or virus in culture
Format in all cases: cell-based, Hepatitis C virus (HCV)
Conditions in all cases: Replicon Assay A
HCV replicon 1AY93H = test system: HCV replicon 1AY93H
How it was run: (§1)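 Replicon cells incubated with compound for 3 days in medium with 5% FBS and 0.5% DMSO final. Replicon RNA measured in lysates by multiplex real-time RT-PCR (Neo set) against cyclophilin control, quantified from standard curves of Ct versus log ng replicon total RNA.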

HCV replicon 1A = test system: HCV replicon 1A
How it was run: as §1

HCV replicon 2B = test system: HCV replicon 2B
How it was run: as §1

[1] = read-out: 1A Y93H IC50, replicon 1AY93H
[2] = read-out: 1A Y93H IC50, HCV replicon 1A Y93H
[3] = read-out: 2B IC50, HCV replicon 2B
[4] = Hepatitis C virus, read-out: 1A Y93H IC50 (nM), replicon 1AY93H
[5] = Hepatitis C virus, read-out: 2B IC50 (nM), replicon 2B

Row | SMILES | IC50 (HCV replicon 1AY93H; [1]) | IC50 (HCV replicon 1A; replicon 1A) | IC50 (HCV replicon 2B; read-out: 2B IC50, replicon 2B) | other results
1 | COC(=O)N[C@H](C(=O)N1CCC[C@H]1c1ncc(-c2cc(F)c3c(c2)OC(c2ccsc2)n2c-3cc3cc(-c4cnc([C@@H]5CCCN5C(=O)[C@@H](NC(=O)OC)C(C)C)[nH]4)ccc32)[nH]1)C(C)C (single isomer, unassigned) [Compound 318] | 5.9 nM | 0.0019 nM | 6.87 nM | 
2 | COC(=O)NC(C(=O)N1CCC[C@H]1c1ncc(-c2cc(F)c3c(c2)OC(c2ccc(C4CC4)s2)n2c-3cc3cc(-c4cnc([C@@H]5CCCN5C(=O)[C@@H](NC(=O)OC)C5CCOCC5)[nH]4)ccc32)[nH]1)C(C)(C)F (single isomer, unassigned) [Compound 171] | 1.4 nM | 0.0131 nM | 4.06 nM | 
3 | COC(=O)N[C@H](C(=O)N1C[C@H](F)C[C@H]1c1nc(-c2ccc3c(c2)OC(c2ccc(C)s2)n2c-3cc3cc(-c4c[nH]c([C@@H]5C[C@H]6C[C@H]6N5C(=O)[C@@H](NC(=O)OC)C5CCOCC5)n4)ccc32)c[nH]1)C1CCOCC1 (single isomer, unassigned) [Compound 731] |  |  |  | IC50 (HCV replicon 1AY93H; [2]): 0.026 nM; IC50 (HCV replicon 1A; HCV replicon 1A): 0.024 nM; IC50 (HCV replicon 2B; [3]): 0.021 nM
4 | CCc1ccc(C2Oc3cc(-c4cnc([C@@H]5CCCN5C(=O)[C@@H](NC(=O)OC)C(C)C)[nH]4)cc(F)c3-c3cc4cc(-c5cnc([C@@H]6CCCN6C(=O)C(NC(=O)OC)C6C[C@@H](C)O[C@@H](C)C6)[nH]5)ccc4n32)s1 (single isomer, unassigned) [Compound 145] | 5.22 nM | 0.0022 nM | 1.62 nM | 
5 | COC(=O)N[C@H](C(=O)N1C[C@H](F)C[C@H]1c1ncc(-c2ccc3c(c2)OC(c2cc(C)c(C)s2)n2c-3cc3cc(-c4c[nH]c([C@@H]5C[C@@H](F)CN5C(=O)[C@@H](NC(=O)OC)C5CCOCC5)n4)ccc32)[nH]1)C(C)C (mixture of isomers) [Compound 725] |  |  |  | IC50 (HCV replicon 1AY93H; Hepatitis C virus, read-out: 1A Y93H IC50, HCV replicon 1A Y93H): 0.058 nM; IC50 (HCV replicon 1A; Hepatitis C virus, HCV replicon 1A): 0.035 nM; IC50 (HCV replicon 2B; Hepatitis C virus, read-out: 2B IC50, HCV replicon 2B): 0.76 nM
6 | COC(=O)N[C@H](C(=O)N1CCC[C@H]1c1ncc(-c2cc(F)c3c(c2)OC(c2cc4c(s2)CCCC4)n2c-3cc3cc(-c4cnc([C@@H]5CCCN5C(=O)[C@@H](NC(=O)OC)C(C)C)[nH]4)ccc32)[nH]1)C(C)C (single isomer, unassigned) [Compound 55] |  |  |  | IC50 (HCV replicon 1AY93H; [4]): 3.26 nM; IC50 (HCV replicon 1A; Hepatitis C virus, replicon 1A): 0.0019 nM; IC50 (HCV replicon 2B; [5]): 2.53 nM
7 | COC(=O)NC(C(=O)N1[C@@H]2C[C@@H]2C[C@H]1c1ncc(-c2ccc3c(c2)c(F)c2n3C(c3ccc(C4CC4)s3)Oc3cc(-c4cnc([C@@H]5CCCN5C(=O)[C@@H](NC(=O)OC)C(C)C)[nH]4)cc(F)c3-2)[nH]1)C1CCOC(C)(C)C1 (single isomer, unassigned) [Compound 423] |  |  |  | IC50 (HCV replicon 1AY93H; [2]): 0.0042 nM; IC50 (HCV replicon 1A; HCV replicon 1A): 0.0021 nM; IC50 (HCV replicon 2B; [3]): 0.0096 nM
8 | COC(=O)N[C@H](C(=O)N1CCC[C@H]1c1ncc(-c2cc(F)c3c(c2)OC(c2csc4ccccc24)n2c-3cc3cc(-c4cnc([C@@H]5CCCN5C(=O)[C@@H](NC(=O)OC)C(C)C)[nH]4)ccc32)[nH]1)C(C)C (single isomer, unassigned) [Compound 323] |  |  |  | IC50 (HCV replicon 1AY93H; [4]): 2.51 nM; IC50 (HCV replicon 1A; Hepatitis C virus, replicon 1A): 0.0021 nM; IC50 (HCV replicon 2B; [5]): 15.8 nM
9 | COC(=O)N[C@H](C(=O)N1CCC[C@H]1c1ncc(-c2cc(F)c3c(c2)OC(c2cc4c(s2)CCC(C)(C)O4)n2c-3cc3cc(-c4cnc([C@@H]5CCCN5C(=O)[C@@H](NC(=O)OC)C(C)C)[nH]4)ccc32)[nH]1)C(C)C (single isomer, unassigned) [Compound 398] | 0.955 nM | 0.0015 nM | 0.494 nM | 
10 | COC(=O)NC(C(=O)N1CCC[C@H]1c1ncc(-c2cc(F)c3c(c2)OC(c2ccc(C4CC4)s2)n2c-3cc3cc(-c4cnc([C@@H]5CCCN5C(=O)[C@@H](NC(=O)OC)C(C)C)[nH]4)ccc32)[nH]1)C1CCOC(C)(C)C1 (single isomer, unassigned) [Compound 217] | 0.18 nM | 0.003 nM | 0.39 nM | 
11 | CCc1ccc(C2Oc3cc(-c4cnc([C@@H]5CCCN5C(=O)[C@@H](NC(=O)OC)C(C)C)[nH]4)cc(F)c3-c3cc4cc(-c5cnc([C@@H]6CCCN6C(=O)C(NC(=O)OC)C6CCOC(C)(C)C6)[nH]5)ccc4n32)s1 (single isomer, unassigned) [Compound 152] | 0.48 nM | 0.0016 nM | 0.53 nM | 
12 | COC(=O)N[C@H](C(=O)N1CCC[C@H]1c1ncc(-c2ccc3c(c2)OC(c2cc4ccccc4s2)n2c-3cc3cc(-c4cnc([C@@H]5C[C@@H](F)CN5C(=O)[C@@H](NC(=O)OC)C5CCOCC5)[nH]4)ccc32)[nH]1)C(C)C (single isomer, unassigned) [Compound 628] |  |  |  | IC50 (HCV replicon 1AY93H; [2]): 0.357 nM; IC50 (HCV replicon 1A; HCV replicon 1A): 0.00314 nM; IC50 (HCV replicon 2B; [3]): 0.922 nM
